Source: patent US5525627A, “Esters of acyl carnitines with long-chain aliphatic alcohols and pharmaceutical compositions containing same having antimycotic activity” (Sigma-Tau Industrie Farmaceutiche Riunite S.p.A., priority 1992, dated 1996)

Legend:
Candida albicans (562) = assay: MIC for yeast and yeast-like strains; format: cell-based; conditions: 48 hours, 35° C., read-out: Minimal Inhibitory Concentration (MIC)
Method: (§1) The following strains were used (the number of strains is in brackets): Candida (13); Criptococcus (2); Saccharormyces (1); Torulopsis (1).
(§2) Yeast Nitrogen Base supplemented with 0.15% asparagine and 1.0% glucose (as carbon source) was the medium utilized in the assays.
(§3) This medium was buffered with 0.165 M 2-(N-morpholino) propane sulfonic acid (MOPS), a non-chelating buffer. […]
(§4) The inoculum was prepared from an overnight broth culture (a 48-hour culture only for Cryptococcus) in Sabouraud broth and appropriately diluted to yield a final suspension containing approximately 5.0×10^6 Colony Forming Units per ml (CFU/ml), when compared to the Mc Farland's standard control (BRAY W. E., Clinical Laboratory Methods, 5th Ed. C. V. MOSBY, St. Louis, Mo, 1957).
(§5) After further diluting (1:50), a […] volume of such fungal suspensions and an equal volume of the substance solutions were distributed into each well of a microtiter plate (96 wells, round bottom). Such a procedure eventually allowed for an "in vitro" antimycotic activity assay utilizing final fungal inocula of approximately 5.0×10^4 CFU/ml.

Candida albicans (A 54) = assay: MIC for yeast and yeast-like strains; format: cell-based; conditions: 48 hours, 35° C., read-out: Minimal Inhibitory Concentration (MIC)
Method: as §1, §2, §3, §4, §5

Candida krusei (ISS 1) = assay: MIC for yeast and yeast-like strains; format: cell-based; conditions: Pichia kudriavzevii; 48 hours, 35° C.; read-out: Minimal Inhibitory Concentration (MIC)
Method: as §1, §2, §3, §4, §5

[1] = tested on: Candida tropicalis (5705); assay: MIC for yeast and yeast-like strains; format: cell-based; conditions: 48 hours, 35° C., read-out: Minimal Inhibitory Concentration (MIC)
Method: as §1, §2, §3, §4, §5

[2] = tested on: Cryptococcus neoformans (4711); assay: MIC for yeast and yeast-like strains; format: cell-based; conditions: 48 hours, 35° C., read-out: Minimal Inhibitory Concentration (MIC)
Method: as §1, §2, §3, §4, §5

[3] = tested on: Saccharomyces cerevisiae (ATCC 7752); assay: MIC for yeast and yeast-like strains; format: cell-based; conditions: ATCC7752, 48 hours, 35° C., read-out: Minimal Inhibitory Concentration (MIC)
Method: as §1, §2, §3, §4, §5

[4] = tested on: Torulopsis candida (D.S.); assay: MIC for yeast and yeast-like strains; format: cell-based; conditions: Suzukiozyma candida; 48 hours, 35° C.; read-out: Minimal Inhibitory Concentration (MIC)
Method: as §1, §2, §3, §4, §5

Candida albicans (PG) = assay: MIC and MFC for yeast and yeast-like strains; format: cell-based; conditions: 48 hours, 35° C., read-out: Minimal Inhibitory Concentration (MIC)
Method: as §1, §2
(§6) This medium was buffered with 0.165 M 2-(N-morpholino) propane sulfonic acid (MOPS), a non-chelating buffer.
(§7) Antimicrob. Agents Cheroother. Aug. 34.8:1542-1545).
as §4, §5
(§8) The minimal fungicidal concentration was evaluated by spot-transferring onto Petri dishes, containing Sabouraud agar, 0.01-ml volumes of all the samples showing no visible fungal growth.

[5] = tested on: Candida albicans (ATCC 2091); assay: MIC for yeast and yeast-like strains; format: cell-based; conditions: ATCC2091, 48 hours, 35° C., read-out: Minimal Inhibitory Concentration (MIC)
Method: as §1, §2, §6, §7, §4, §5

Candida albicans (ISS 1) = assay: MIC for yeast and yeast-like strains; format: cell-based; conditions: 48 hours, 35° C., read-out: Minimal Inhibitory Concentration (MIC)
Method: as §1, §2, §6, §7, §4, §5

Candida glabrata (ISS 1) = assay: MIC for yeast and yeast-like strains; format: cell-based; conditions: Nakaseomyces glabratus; 48 hours, 35° C.; read-out: Minimal Inhibitory Concentration (MIC)
Method: as §1, §2, §6, §7, §4, §5

[6] = tested on: Candida guilliermondii (ISS 1); assay: MIC for yeast and yeast-like strains; format: cell-based; conditions: Meyerozyma guilliermondii; 48 hours, 35° C.; read-out: Minimal Inhibitory Concentration (MIC)
Method: as §1, §2, §6, §7, §4, §5

[7] = tested on: Candida parapsilosis (ISS 1); assay: MIC for yeast and yeast-like strains; format: cell-based; conditions: Lodderomyces parapsilosis; 48 hours, 35° C.; read-out: Minimal Inhibitory Concentration (MIC)
Method: as §1, §2, §6, §7, §4, §5

[8] = tested on: Candida pseudotropicalis (EC 1); assay: MIC for yeast and yeast-like strains; format: cell-based; conditions: Kluyveromyces marxianus; 48 hours, 35° C.; read-out: Minimal Inhibitory Concentration (MIC)
Method: as §1, §2, §6, §7, §4, §5

[9] = tested on: Candida tropicalis (ISS 1); assay: MIC for yeast and yeast-like strains; format: cell-based; conditions: 48 hours, 35° C., read-out: Minimal Inhibitory Concentration (MIC)
Method: as §1, §2, §6, §7, §4, §5

[10] = tested on: Cryptococcus neoformans (ISS 1); assay: MIC for yeast and yeast-like strains; format: cell-based; conditions: 48 hours, 35° C., read-out: Minimal Inhibitory Concentration (MIC)
Method: as §1, §2, §6, §7, §4, §5

yeast-like fungi = assay: MIC / MFC for yeast-like fungi, all strains; format: cell-based, Candida, Cryptococcus, Saccharomyces, Torulopsis; conditions: versus susceptible strains; read-out: Mean MIC values
Method: as §1, §2, §3, §4, §5, §8

[11] = tested on: Aspergillus fumigatus (1/A); assay: MIC for filamentous fungi; format: cell-based; conditions: read-out: Minimal Inhibitory Concentration (MIC)
Text: (§9) The following strains were used (the number of strains is in brackets): Aspergillus (5); Fusarium (1); Mucor (1); Penicillium (1).
(§10) The tested substances were: ST 712, ST 722, ST 982, ST 983, ST 1000, ST 1001, ST 1032, ST 1033, ST 1034, ST 1036, ST 1037, ST 1038, ST 1050, ST 1051, ST 1052, ST 1053. The assay medium was the same as the one used in the previous study. The conidia from 72-hour cultures in Sabouraud agar, collected by washing with Sabouraud medium and Tween 80 (one drop of Tween per 10 ml of medium), were utilized as inoculum (5.0×10^4 CFU/ml).
(§11) The assay was performed using the same procedure as described for yeast-like fungi.
(§12) Also the evaluation of MIC and MFC was as reported previously.

[12] = tested on: Aspergillus fumigatus (2/A); assay: MIC for filamentous fungi; format: cell-based; conditions: read-out: Minimal Inhibitory Concentration (MIC)
Text: as §9, §10, §11, §12

[13] = tested on: Aspergillus fumigatus (ATCC 28212); assay: MIC for filamentous fungi; format: cell-based; conditions: ATCC28212, read-out: Minimal Inhibitory Concentration (MIC)
Text: as §9, §10, §11, §12

[14] = tested on: Aspergillus fumigatus (C/1); assay: MIC for filamentous fungi; format: cell-based; conditions: read-out: Minimal Inhibitory Concentration (MIC)
Text: as §9, §10, §11, §12

[15] = tested on: Aspergillus niger (ATCC 16404); assay: MIC for filamentous fungi; format: cell-based; conditions: ATCC16404, read-out: Minimal Inhibitory Concentration (MIC)
Text: as §9, §10, §11, §12

Fusarium sp. (ISS 1) = assay: MIC for filamentous fungi; format: cell-based; conditions: read-out: Minimal Inhibitory Concentration (MIC)
Text: as §9, §10, §11, §12

Mucor mucedo (ATCC 7941) = assay: MIC for filamentous fungi; format: cell-based; conditions: ATCC7941, read-out: Minimal Inhibitory Concentration (MIC)
Text: as §9, §10, §11, §12

Penicillium sp. (1302) = assay: MIC for filamentous fungi; format: cell-based; conditions: read-out: Minimal Inhibitory Concentration (MIC)
Text: as §9, §10, §11, §12

filamentous fungi = assay: MIC / MFC for filamentous fungi, all strains; format: cell-based, Aspergillus, Fusarium, Mucor, Penicillium; conditions: versus susceptible strains; read-out: Mean MIC values
Text: as §9, §10, §11, §12

[16] = tested on: Epidermophyton floccosum (IHEM 3495); assay: MIC for dermatophytic fungi; format: cell-based; conditions: 35° C., 96 hours, read-out: Minimal Inhibitory Concentration (MIC)
Method: (§13) The following strains were used: Trichophyton menthagrophytes ATCC 9533, Trichophyton rubrum IHEM 4274, Microsporum canis IHEM 3522, Epydermophyton floccosum IHEM 3495. The tested substances were: ST 722, ST 1033, ST 1037, ST 1050, ST 1051, ST 1052,. ST 1053.
(§14) The assay was performed following the same procedure described for the yeasts, by using 7-day fungi cultures grown at 30° C. in Potato Dextrose agar, and harvested with Sabouraud broth and Tween 80 (0.5%).
(§15) After washing with Yeast Nitrogen Base, supplemented with asparagine and glucose (as carbon source), the fungal suspension was fragmented using a tissue grinder until the largest clumps or aggregates were undetectable within the grinder. This fungal suspension was then appropriately diluted in YNB to yield a concentration of 2.0×10^5 infective particles/ml (small mycelium fragments, micro-and macroaleuriospores).
(§16) Volumes of 100 μl both of the fungal suspensions and substance solutions, two-fold serially diluted in assay medium, were distributed into each well of a microtiter plate (96 wells, round bottom), which was incubated at 35° C. for 96 hours.

[17] = tested on: Microsporum canis (IHEM 3522); assay: MIC for dermatophytic fungi; format: cell-based; conditions: 35° C., 96 hours, read-out: Minimal Inhibitory Concentration (MIC)
Method: as §13, §14, §15, §16

[18] = tested on: Trichophyton menthagrophites (ATCC 9533); assay: MIC for dermatophytic fungi; format: cell-based; conditions: ATCC9533, 35° C., 96 hours, read-out: Minimal Inhibitory Concentration (MIC)
Method: as §13, §14, §15, §16

[19] = tested on: Trichophyton rubrum (IHEM 4274); assay: MIC for dermatophytic fungi; format: cell-based; conditions: 35° C., 96 hours, read-out: Minimal Inhibitory Concentration (MIC)
Method: as §13, §14, §15, §16

dermatophytic fungi = assay: MIC / MFC for dermatophytic fungi, all strains; format: cell-based, Trichophyton, Microsporum, Epidermophyton; conditions: versus susceptible strains
Method: as §13, §14, §15, §16

Candida albicans (Ca 2) = assay: MIC for yeast and yeast-like strains; format: cell-based; conditions: 48 hours, 35° C., read-out: Minimal Inhibitory Concentration (MIC)
Method: as §1, §2, §3, §4, §5

| Structure (SMILES) | MIC (Candida albicans (562)) [µg/mL] | MIC (Candida albicans (A 54)) [µg/mL] | MIC (Candida krusei (ISS 1)) [µg/mL] | MIC [1] [µg/mL] | MIC [2] [µg/mL] | MIC [3] [µg/mL] | MIC [4] [µg/mL] | MIC (Candida albicans (PG)) [µg/mL] | MIC [5] [µg/mL] | MIC (Candida albicans (ISS 1)) [µg/mL] | MIC (Candida glabrata (ISS 1)) [µg/mL] | MIC [6] [µg/mL] | MIC [7] [µg/mL] | MIC [8] [µg/mL] | MIC [9] [µg/mL] | MIC [10] [µg/mL] | MIC (yeast-like fungi) [µg/mL] | MIC [11] [µg/mL] | MIC [12] [µg/mL] | MIC [13] [µg/mL] | also measured |
| --- | --- | --- | --- | --- | --- | --- | --- | --- | --- | --- | --- | --- | --- | --- | --- | --- | --- | --- | --- | --- | --- |
| CCCCCCCCCCCCCOC(=O)C[C@H](C[N+](C)(C)C)OC(=O)CC(C)C [ST 1033] | 1.56 | 1.56 | 3.12 | 3.12 | 0.78 | 3.12 | 3.12 | 3.12 | 3.12 | 1.56 | 3.12 | 6.25 | 3.12 | 3.12 | 3.12 | 1.56 | 2.7 | 3.12 | 3.12 | 3.12 | MIC [14]: 3.12 µg/mL; MIC [15]: 6.25 µg/mL; MIC (Fusarium sp. (ISS 1)): 3.12 µg/mL; MIC (Mucor mucedo (ATCC 7941)): 6.25 µg/mL; MIC (Penicillium sp. (1302)): 3.12 µg/mL; MIC (filamentous fungi): 3.9 µg/mL; MIC [16]: 25 µg/mL; MIC [17]: 6.25 µg/mL; MIC [18]: 12.5 µg/mL; MIC [19]: 6.25 µg/mL; MIC (dermatophytic fungi): 12.5 µg/mL |
| CCCCCCCCCCCCOC(=O)C[C@H](C[N+](C)(C)C)OC(=O)CC(C)C [ST 1037] | 1.56 | 1.56 | 1.56 | 3.12 | 0.78 | 3.12 | 3.12 | 3.12 | 1.56 | 3.12 | 3.12 | 6.25 | 3.12 | 6.25 | 3.12 | 1.56 | 2.8 | 6.25 | 6.25 | 6.25 | MIC (Candida albicans (Ca 2)): 1.56 µg/mL; MIC [14]: 6.25 µg/mL; MIC [15]: 6.25 µg/mL; MIC (Fusarium sp. (ISS 1)): 3.12 µg/mL; MIC (Mucor mucedo (ATCC 7941)): 12.5 µg/mL; MIC (Penicillium sp. (1302)): 6.25 µg/mL; MIC (filamentous fungi): 6.64 µg/mL; MIC [16]: 25 µg/mL; MIC [17]: 12.5 µg/mL; MIC [18]: 12.5 µg/mL; MIC [19]: 6.25 µg/mL; MIC (dermatophytic fungi): 14.1 µg/mL |
